Laboratory results reported in ChEMBL document CHEMBL5038666, “Discovery of DNA-Targeting HDAC Inhibitors with Potent Antitumor Efficacy In Vivo That Trigger Antitumor Immunity” (J Med Chem, 2022).
Calls of active or inactive are those of the source. No cut-off for these calls is given here.

Assays:
[1] = tested on: B16-F10; assay: Antitumor activity against mouse B16-F10 cells implanted in C57BL/6J mouse assessed as reduction on tumor weight at 60 mg/kg, IG administered for 12 days; assay type: functional, organism-based; details: time 12.0 day
[2] = target: Histone deacetylase; assay: Inhibition of HDAC in human HeLa nuclear extract using fluorogenic substrate incubated for 30 mins by fluorescence based assay; assay type: cell-based
[3] = target: Histone deacetylase 2 (Homo sapiens, UniProt Q92769); assay: Inhibition of HDAC2 (unknown origin) using fluorogenic substrate incubated for 30 mins by fluorescence based assay
Sequence of Histone deacetylase 2 (Q92769 whole entry): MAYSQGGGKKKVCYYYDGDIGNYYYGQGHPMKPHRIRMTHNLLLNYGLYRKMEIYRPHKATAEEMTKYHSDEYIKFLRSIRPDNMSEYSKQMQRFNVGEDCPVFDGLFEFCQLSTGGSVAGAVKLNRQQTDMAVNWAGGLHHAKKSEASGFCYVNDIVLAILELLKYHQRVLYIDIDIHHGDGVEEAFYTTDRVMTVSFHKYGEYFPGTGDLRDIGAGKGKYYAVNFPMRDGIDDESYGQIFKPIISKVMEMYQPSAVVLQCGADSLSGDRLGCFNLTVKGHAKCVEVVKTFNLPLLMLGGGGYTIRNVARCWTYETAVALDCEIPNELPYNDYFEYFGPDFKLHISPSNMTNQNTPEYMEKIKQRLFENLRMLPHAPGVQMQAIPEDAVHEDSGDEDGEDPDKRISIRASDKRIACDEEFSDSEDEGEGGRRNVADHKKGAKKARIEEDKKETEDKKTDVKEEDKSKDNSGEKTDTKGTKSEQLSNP

[4] = target: T1, Histone deacetylase 8 (Homo sapiens, UniProt Q9BY41); assay: Inhibition of HDAC8 (unknown origin) using fluorogenic substrate incubated for 30 mins by fluorescence based assay
T1 sequence (Q9BY41 whole entry): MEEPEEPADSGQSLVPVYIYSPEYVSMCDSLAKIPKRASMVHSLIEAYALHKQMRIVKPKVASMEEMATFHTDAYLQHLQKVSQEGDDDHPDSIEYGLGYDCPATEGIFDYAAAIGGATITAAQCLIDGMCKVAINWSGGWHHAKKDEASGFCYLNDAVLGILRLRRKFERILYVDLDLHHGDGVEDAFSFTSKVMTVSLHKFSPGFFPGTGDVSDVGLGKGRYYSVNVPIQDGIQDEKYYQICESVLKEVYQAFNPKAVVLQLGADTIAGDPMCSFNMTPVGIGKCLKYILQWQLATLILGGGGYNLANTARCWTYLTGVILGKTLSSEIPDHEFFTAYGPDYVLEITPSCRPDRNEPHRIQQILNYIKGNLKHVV

[5] = tested on: PC-3; assay: cells; assay type: functional, cell-based; details: Homo sapiens, PC-3, 48 h
Description: Antiproliferative activity against human PC3 cells assessed as inhibition of cell growth measured after 48 hrs by MTT assay

[6] = tested on: HepG2; assay: cells; assay type: functional, cell-based; details: Homo sapiens, HepG2, 48 h
Description: Antiproliferative activity against human HepG2 cells assessed as inhibition of cell growth measured after 48 hrs by MTT assay

[7] = tested on: KG-1; assay: Antiproliferative activity against human KG-1 cells assessed as inhibition of cell growth measured after 48 hrs by MTT assay; assay type: functional, cell-based; details: KG-1, 48 h
[8] = tested on: K562; assay: cells; assay type: functional, cell-based; details: Homo sapiens, K562, 48 h
Description: Antiproliferative activity against human K562 cells assessed as inhibition of cell growth measured after 48 hrs by MTT assay

[9] = tested on: HEL; assay: Antitumor activity against HEL cells xenografted in mouse assessed as inhibition of tumor growth at 90 mg/kg, ip administered for 20 days; assay type: functional, organism-based; details: Homo sapiens, time 20.0 day
[10] = Toxicity in mouse xenografted with HEL cells assessed as effect on body weight at 90 mg/kg, ip administered for 20 days; assay type: organism-based; details: in vivo, 480 h, time 20 day
[11] = tested on: B16-F10; assay: cells; assay type: functional, cell-based; details: Mus musculus, B16-F10, 48 h
Description: Antiproliferative activity against mouse B16-F10 cells assessed as inhibition of cell growth measured after 48 hrs by MTT assay

[12] = tested on: B16-F10; assay: Induction of apoptosis in mouse B16-F10 cells at 5 to 10 uM measured after 24 hrs by Annexin V-FITC/propidium iodide staining based flow cytometry analysis; assay type: functional, cell-based; details: dose 5-10 µM
[13] = tested on: B16-F10; assay: Antitumor activity against mouse B16-F10 cells implanted in C57BL/6J mouse assessed as reduction on tumor volume at 60 mg/kg, IG administered for 12 days; assay type: functional, organism-based; details: time 12.0 day
[14] = Toxicity in C57BL/6J mouse implanted with mouse B16-F10 cells assessed as effect on body weight at 60 mg/kg, IG administered for 12 days; assay type: organism-based; details: in vivo, po, 288 h, time 12 day
[15] = Toxicity in C57BL/6J mouse implanted with mouse B16-F10 cells assessed as glomerular structure damage in kidney at 60 mg/kg, IG administered for 12 days H and E staining based histopathological analysis; assay type: organism-based; details: in vivo, po, 288 h, time 12 day
[16] = Toxicity in C57BL/6J mouse implanted with mouse B16-F10 cells assessed as heart damage at 60 mg/kg, IG administered for 12 days H and E staining based histopathological analysis; assay type: organism-based; details: in vivo, po, 288 h, time 12 day
[17] = tested on: B16-F10; assay: Antitumor immunity against mouse B16-F10 cells implanted in C57BL/6J mouse assessed as fold increase in proportion of macrophages in spleen by flow cytometry analysis relative to control; assay type: functional
[18] = tested on: B16-F10; assay: Antitumor immunity against mouse B16-F10 cells implanted in C57BL/6J mouse assessed as fold increase in CD86 expression by flow cytometry analysis relative to control; assay type: functional
[19] = tested on: B16-F10; assay: Antitumor immunity against mouse B16-F10 cells implanted in C57BL/6J mouse assessed as fold reduction in Treg cells in spleen by flow cytometry analysis relative to control; assay type: functional
[20] = tested on: B16-F10; assay: Antitumor immunity against mouse B16-F10 cells implanted in C57BL/6J mouse assessed as fold increase in downregulation of CD200R expression in spleen by flow cytometry analysis relative to control; assay type: functional
[21] = tested on: B16-F10; assay: Antitumor immunity against mouse B16-F10 cells implanted in C57BL/6J mouse assessed as fold reduction in macrophages in tumor microenvironment by flow cytometry analysis relative to control; assay type: functional
[22] = tested on: B16-F10; assay: Antitumor activity against mouse B16-F10 cells xenografted in C57BL/6J mouse assessed as reduction in tumor heterogeneity at 60 mg/kg, IG administered for 12 days by H and E staining based histopathological analysis; assay type: functional, organism-based; details: time 12.0 day

SMILES | Activity [1] | IC50 [2] [nM] | IC50 [3] [nM] | IC50 [4] [nM] | IC50 [5] [nM] | IC50 [6] [nM] | IC50 [7] [nM] | IC50 [8] [nM] | Activity [9] | Activity [10] | IC50 [11] [nM] | Activity [12] | Activity [13] | Activity [14] | Activity [15] | Activity [16] | fold change (FC) [17] | fold change (FC) [18] | fold change (FC) [19] | fold change (FC) [20] | also measured
O=C(CCCCCCOc1cccc(-c2nc3ccccc3[nH]2)c1)NO | Active | 13.2 | 46 | 5980 | 2700 | 3900 | 190 | 290 | Active | Non-Toxic | 4800 | Active | Active | Non-Toxic | Non-Toxic | Non-Toxic | 1.6 | 1.3 | 1.5 | 1.3 | fold change (FC) [21]: 1.7; Activity [22]: Active
O=C(CCCCCCCOc1cccc(-c2nc3ccccc3[nH]2)c1)NO | Active | 7.9 | 91 | 12.9 | 7900 | 4800 | 3400 | 990 | Active | Non-Toxic | 3970 | Active | Active | Non-Toxic | Toxic | Non-Toxic | 1.6 | 1.3 | 1.5 | 1.3 | fold change (FC) [21]: 1.7; Activity [22]: Active
